Assay results reported in patent US20180201662A1, “PEPTIDE FOR PROMOTING CELL MIGRATION AND/OR SKIN WOUND HEALING, PHARMACEUTICAL COMPOSITION CONTAINING THE SAME, AND APPLICATION THEREOF” (Industrial Technology Research Institute, priority 2016, published 2018).
Where no end group is shown, it is not given here. [ ]: non-standard residue; d: D form.

Columns and labels:
Assay type in all cases: cell-based
[1] = tested on: human monocyte-derived macrophages; experiment: TNF-α secretion of monocyte-derived macrophages stimulated with peptides (ELISA)
Description: (§1) Peripheral blood mononuclear cells were isolated from leukocytes in the blood of healthy donors by Ficoll Hypaque.
(§2) Monocytes were isolated from the peripheral blood mononuclear cells by using Human MACS CD14 Isolation Kit.
(§3) Monocytes (2×10^6 cells/mL) were seeded in a 6-well plate containing 2 mL fresh complete medium and cultured at 5% CO2, 37° C. for 6 days. The medium was changed every 2-3 days to make the monocytes differentiate to macrophages.
2. Detection of TNF-α Secretion of Monocyte-Derived Macrophages Stimulated with Peptides
Peptides were added to respective wells of a culturing plate to stimulate macrophages for 48 hours. Macrophages not stimulated were used as a blank group.
2.2.1 TNF-α secreted from macrophages to the supernatant of the culture was detected by a human TNF-α kit.
2.2.2 Absorbance of the supernatant of the culture at 450-540 nm was detected by a SpectraMax M5 microplate reader. Detection limitation of this ELISA kit to TNF-α is about […].

[2] = tested on: human monocyte-derived macrophages; experiment: MCP-1 secretion of human monocyte-derived macrophages stimulated with peptides (ELISA)
Description: as §1, §2, §3
(§4) 3. Detections of MCP-1 Secretion of Human Umbilical Vein Endothelial Cells HUVECs and Human Monocyte-Derived Macrophages Stimulated with Peptides
(§5) Peptides were added to respective wells of a culturing plate to stimulate HUVECs for 24-48 hours, or to stimulate macrophages for 48 hours. In the experiment for macrophages, macrophages not stimulated were used as a blank group.
(§6) 3.2.1 MCP-1 respectively secreted from HUVECs and macrophages to the supernatant of the culture was detected by a […].
(§7) 3.2.2 Absorbance of the supernatant of the culture at 450-540 nm was detected by a SpectraMax M5 microplate reader. Detection limitation of this ELISA kit to MCP-1 is about […].

[3] = tested on: human keratinocyte cell line HaCaT; experiment: MMP9 secretion of human keratinocyte cell line HaCaT stimulated with peptides (ELISA); conditions: 48 hours; peptides 1.5, 1 and 0.5 mg/ml vs IL-6 1000 and 100 ng/ml; FIG. 9
Description: 5. Detection of MMP9 Secretion of Human Keratinocyte Cell Line HaCaT Stimulated with Peptides
Peptides were added to respective wells of a culturing plate to stimulate HaCaT cells for 48 hours. HaCaT cells not stimulated were used as a blank group.
5.2.1 MMP9 secreted from HaCaT cells to the supernatant of the culture was detected by a MMP9 kit (R&D systems, Human MMP-9 DuoSet ELISA (DY911)).
5.2.2 Absorbance of the supernatant of the culture at 450-540 nm was detected by a SpectraMax M5 microplate reader. Detection limitation of this ELISA kit to MMP9 is about […].

[4] = tested on: human umbilical vein endothelial cells (HUVEC); experiment: MCP-1 secretion of human umbilical vein endothelial cells HUVECs stimulated with peptides (ELISA); conditions: Peptide 6 660 and 165 μg/ml, IL-6 200 and 50 ng/ml, FIG. 2A
Description: as §4, §5, §6, §7

[5] = tested on: human keratinocyte cell line HaCaT; experiment: Cell migration analysis of human keratinocyte cell line HaCaT stimulated with peptides (scratch); conditions: compared to control group; concentrations of 300 μg/ml, 660 μg/ml and 1000 μg/ml; 18 hour; FIG. 3A, 3B
Description: 4. Cell Migration Analysis of Human Keratinocyte Cell Line HaCaT Stimulated with Peptides
4.1 Each well of a 12-well culturing plate was coated with 100 μg/ml of collagen (in 0.02N acetic acid) (0.5 ml/well).
4.2 The culturing plate was placed at 37° C. for 1 hour, and then was washed with Dulbecco's phosphate buffered saline (DPBS) one time.
4.3 HaCaT cells were seeded in the culturing plate with DMEM containing serum (5×10^5 cells/well), and the final serum concentration for each well was 10%.
4.4 The cells were cultured in a condition of 5% CO2, 37° C.
4.5 The medium was replaced with DMEM containing 0.6% serum for serum starvation and culture the cells overnight.
4.6 The bottom of the well of the culturing plate was scraped with 1000 μl tips, and the culturing plate was washed with Dulbecco's phosphate buffered saline twice.
4.7 The cells and peptides were cultured in DMEM containing 0.6% serum. HaCaT cells not stimulated with peptides or growth factors were used as a control group.
4.8 Photographs were taken at 0 hour and 18 hour.
4.9. The photographs were analyzed by Celllmage Comp software, and the migration distances for cells were calculated.

[6] = macrophages of Donor 4, 48 hours, peptides up to 250 μg/ml, IL-6 100 ng/ml and 50 ng/ml, FIG. 7
[7] = macrophages of Donor 4, 48 hours, peptides 50 ng/ml-250 μg/ml vs IL-6 100 and 50 ng/ml, FIG. 8
[8] = macrophages of Donor 5, 48 hours, peptides 50 μg/ml, IL-6 200 ng/ml, FIG. 12
[9] = macrophages of Donor 5, 48 hours, peptides 50 μg/ml vs IL-6 200 ng/ml, FIG. 13
[10] = macrophages of Donors 1-3, 48 hours, Peptide 6 up to 1000 μg/ml, IL-6 50 ng/ml, FIG. 1A-1C
[11] = macrophages of Donors 1-3, 48 hours, Peptide 6 125-1000 μg/ml, IL-6 5-200 ng/ml, FIG. 2B-2D

Substance | TNF-α secretion of macrophages [1, 6] | MCP-1 secretion of macrophages [2, 7] | MMP9 secretion of HaCaT [3] | TNF-α secretion of macrophages [1, 8] | MCP-1 secretion of macrophages [2, 9] | TNF-α secretion of macrophages [1, 10] | MCP-1 secretion of HUVECs [4] | MCP-1 secretion of macrophages [2, 11] | cell migration of HaCaT [5]
ITRI-2: isoform of Peptide 6 (SEQ ID NO. 6) with one D-form amino acid: valine at position 13 (NRFESSEEQARA[dV]QMSTKVLIQFLQKKA) | a low level of TNF-α | a higher level of MCP-1 secretion than IL-6 | a higher level of MMP9 secretion than IL-6 |  |  |  |  |  | 
6M14: short form peptide of Peptide 6, sequence SEQ ID NO. 3 (EQARAVQMSTKVLI) [Peptide 6M14] |  |  |  | almost do not induce TNF-α secretion | a higher level of MCP-1 secretion than IL-6 |  |  |  | 
Peptide 6: IL-6-derived peptide, sequence SEQ ID NO. 6, corresponds to amino acids of positions 102 to 129 of mature form IL-6 (NRFESSEEQARAVQMSTKVLIQFLQKKA) | a low level of TNF-α | a higher level of MCP-1 secretion than IL-6 | a higher level of MMP9 secretion than IL-6 | almost do not induce TNF-α secretion | a higher level of MCP-1 secretion than IL-6 | does not induce macrophages to secrete TNF-α | a great quantity of MCP-1 | a great quantity of MCP-1 | can promote cell migration
IL-6: interleukin; mature form has the sequence of SEQ ID NO. 1; comparator | a great quantity of TNF-α |  |  | a great quantity of TNF-α |  | can induce macrophages to secrete TNF-α | a lower quantity of MCP-1 | a lower quantity of MCP-1 | 
